Source: ChEMBL document CHEMBL1141712, “Kinase array design, back to front: biaryl amides” (Bioorg Med Chem Lett, 2008)

What was measured:
[1] = target: Mitogen-activated protein kinase 14 (Homo sapiens, UniProt Q16539); experiment: Displacement of fluorescent ATP competitive ligand from p38alpha
[2] = target: T1, Serine/threonine-protein kinase Sgk1 (Homo sapiens, UniProt O00141); experiment: Inhibition of SGK1
T1 sequence (O00141 whole entry): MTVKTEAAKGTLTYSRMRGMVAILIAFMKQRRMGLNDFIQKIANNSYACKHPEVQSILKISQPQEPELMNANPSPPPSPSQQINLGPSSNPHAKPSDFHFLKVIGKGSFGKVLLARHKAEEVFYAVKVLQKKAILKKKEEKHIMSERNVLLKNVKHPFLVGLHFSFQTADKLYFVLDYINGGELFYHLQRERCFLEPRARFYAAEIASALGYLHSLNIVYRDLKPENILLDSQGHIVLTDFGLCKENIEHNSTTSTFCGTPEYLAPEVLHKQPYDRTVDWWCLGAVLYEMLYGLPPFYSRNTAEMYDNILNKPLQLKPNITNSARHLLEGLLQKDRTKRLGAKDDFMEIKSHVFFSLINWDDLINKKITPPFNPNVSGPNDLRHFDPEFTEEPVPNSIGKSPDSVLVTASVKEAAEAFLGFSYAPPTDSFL

[3] = target: Serine/threonine-protein kinase PLK1 (Homo sapiens, UniProt P53350); experiment: Inhibition of PLK1
[4] = target: Vascular endothelial growth factor receptor 2 (Homo sapiens, UniProt P35968); experiment: Inhibition of VEGFR2
[5] = target: Cyclin-dependent kinase 2 (Homo sapiens, UniProt P24941); experiment: Inhibition of CDK2
[6] = target: Macrophage colony-stimulating factor 1 receptor (Homo sapiens, UniProt P07333); experiment: Inhibition of cFMS
[7] = target: Mitogen-activated protein kinase 10 (Homo sapiens, UniProt P53779); experiment: Inhibition of JNK3
[8] = target: Dual specificity mitogen-activated protein kinase kinase 1 (Homo sapiens, UniProt Q02750); experiment: Inhibition of MEK1 by cRaf/mek/Erk cascade assay
Blood = experiment: Inhibition of LPS-stimulated TNFalpha release in human whole blood; assay type: functional, tissue-based
[9] = target: Tyrosine-protein kinase Lck (Homo sapiens, UniProt P06239)
PBMC = experiment: Inhibition of LPS-stimulated TNFalpha release in human PBMCs; assay type: functional, cell-based
[10] = target: Epidermal growth factor receptor (Homo sapiens, UniProt P00533)
[11] = target: Receptor tyrosine-protein kinase erbB-4 (Homo sapiens, UniProt Q15303); experiment: Inhibition of ErbB4
Receptor tyrosine-protein kinase erbB-4, sequence (Q15303 whole entry): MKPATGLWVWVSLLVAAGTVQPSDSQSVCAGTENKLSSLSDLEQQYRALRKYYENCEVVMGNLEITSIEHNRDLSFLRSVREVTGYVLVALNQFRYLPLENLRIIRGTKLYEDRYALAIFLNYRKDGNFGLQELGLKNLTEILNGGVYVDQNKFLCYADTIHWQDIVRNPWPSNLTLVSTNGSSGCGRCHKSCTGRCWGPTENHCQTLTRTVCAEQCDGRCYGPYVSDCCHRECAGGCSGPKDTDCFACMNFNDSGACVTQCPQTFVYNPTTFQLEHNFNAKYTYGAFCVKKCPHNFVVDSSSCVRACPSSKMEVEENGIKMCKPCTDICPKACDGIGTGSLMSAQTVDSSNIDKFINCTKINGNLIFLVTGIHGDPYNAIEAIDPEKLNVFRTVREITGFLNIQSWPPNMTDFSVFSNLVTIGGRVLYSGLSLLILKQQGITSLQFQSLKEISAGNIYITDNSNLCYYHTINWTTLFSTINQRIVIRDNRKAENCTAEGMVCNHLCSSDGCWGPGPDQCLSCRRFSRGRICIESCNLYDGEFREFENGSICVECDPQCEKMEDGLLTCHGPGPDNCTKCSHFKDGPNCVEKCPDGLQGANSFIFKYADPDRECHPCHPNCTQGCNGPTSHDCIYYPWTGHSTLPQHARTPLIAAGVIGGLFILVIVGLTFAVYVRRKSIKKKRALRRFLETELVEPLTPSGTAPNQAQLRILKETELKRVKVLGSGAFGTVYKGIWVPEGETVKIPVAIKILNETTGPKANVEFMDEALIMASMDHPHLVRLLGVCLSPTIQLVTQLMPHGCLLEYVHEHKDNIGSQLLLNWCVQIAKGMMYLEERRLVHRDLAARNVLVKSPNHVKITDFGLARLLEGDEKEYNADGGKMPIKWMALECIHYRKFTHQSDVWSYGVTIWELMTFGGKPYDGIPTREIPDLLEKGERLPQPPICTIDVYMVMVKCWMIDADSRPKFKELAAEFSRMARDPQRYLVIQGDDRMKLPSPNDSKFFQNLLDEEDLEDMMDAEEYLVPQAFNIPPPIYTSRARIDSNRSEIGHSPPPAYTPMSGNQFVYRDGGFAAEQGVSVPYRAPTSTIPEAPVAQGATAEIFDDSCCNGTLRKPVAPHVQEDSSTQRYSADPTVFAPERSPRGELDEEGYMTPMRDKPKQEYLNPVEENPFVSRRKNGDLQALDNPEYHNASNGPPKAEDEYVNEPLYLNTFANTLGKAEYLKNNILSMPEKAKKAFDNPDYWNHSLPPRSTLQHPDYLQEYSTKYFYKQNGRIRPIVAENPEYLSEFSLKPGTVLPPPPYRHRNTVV

Dual specificity mitogen-activated protein kinase kinase 1, sequence (Q02750 whole entry): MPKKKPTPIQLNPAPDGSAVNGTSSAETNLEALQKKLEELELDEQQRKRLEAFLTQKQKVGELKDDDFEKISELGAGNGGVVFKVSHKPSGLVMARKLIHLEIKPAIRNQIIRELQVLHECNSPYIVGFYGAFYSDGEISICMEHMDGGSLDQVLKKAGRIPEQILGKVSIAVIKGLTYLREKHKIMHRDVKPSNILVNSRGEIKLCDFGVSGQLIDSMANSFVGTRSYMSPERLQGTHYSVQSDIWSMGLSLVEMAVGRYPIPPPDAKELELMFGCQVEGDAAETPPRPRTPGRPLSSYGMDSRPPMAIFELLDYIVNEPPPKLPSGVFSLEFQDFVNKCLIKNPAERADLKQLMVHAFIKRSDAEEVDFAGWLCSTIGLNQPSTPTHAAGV
Tyrosine-protein kinase Lck, sequence (P06239 whole entry): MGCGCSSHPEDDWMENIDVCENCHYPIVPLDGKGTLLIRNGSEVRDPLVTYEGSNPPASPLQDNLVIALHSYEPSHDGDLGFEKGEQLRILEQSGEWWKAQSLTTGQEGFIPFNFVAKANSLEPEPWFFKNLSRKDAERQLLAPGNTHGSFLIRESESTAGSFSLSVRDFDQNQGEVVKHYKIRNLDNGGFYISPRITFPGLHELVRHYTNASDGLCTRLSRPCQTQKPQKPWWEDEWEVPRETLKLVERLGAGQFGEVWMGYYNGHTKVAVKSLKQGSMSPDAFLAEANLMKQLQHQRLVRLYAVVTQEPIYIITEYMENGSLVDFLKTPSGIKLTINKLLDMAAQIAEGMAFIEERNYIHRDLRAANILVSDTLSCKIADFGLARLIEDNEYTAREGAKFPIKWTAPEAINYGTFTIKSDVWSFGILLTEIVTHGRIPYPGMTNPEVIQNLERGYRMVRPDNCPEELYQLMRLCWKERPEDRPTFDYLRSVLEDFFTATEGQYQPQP
Vascular endothelial growth factor receptor 2, sequence (P35968 whole entry): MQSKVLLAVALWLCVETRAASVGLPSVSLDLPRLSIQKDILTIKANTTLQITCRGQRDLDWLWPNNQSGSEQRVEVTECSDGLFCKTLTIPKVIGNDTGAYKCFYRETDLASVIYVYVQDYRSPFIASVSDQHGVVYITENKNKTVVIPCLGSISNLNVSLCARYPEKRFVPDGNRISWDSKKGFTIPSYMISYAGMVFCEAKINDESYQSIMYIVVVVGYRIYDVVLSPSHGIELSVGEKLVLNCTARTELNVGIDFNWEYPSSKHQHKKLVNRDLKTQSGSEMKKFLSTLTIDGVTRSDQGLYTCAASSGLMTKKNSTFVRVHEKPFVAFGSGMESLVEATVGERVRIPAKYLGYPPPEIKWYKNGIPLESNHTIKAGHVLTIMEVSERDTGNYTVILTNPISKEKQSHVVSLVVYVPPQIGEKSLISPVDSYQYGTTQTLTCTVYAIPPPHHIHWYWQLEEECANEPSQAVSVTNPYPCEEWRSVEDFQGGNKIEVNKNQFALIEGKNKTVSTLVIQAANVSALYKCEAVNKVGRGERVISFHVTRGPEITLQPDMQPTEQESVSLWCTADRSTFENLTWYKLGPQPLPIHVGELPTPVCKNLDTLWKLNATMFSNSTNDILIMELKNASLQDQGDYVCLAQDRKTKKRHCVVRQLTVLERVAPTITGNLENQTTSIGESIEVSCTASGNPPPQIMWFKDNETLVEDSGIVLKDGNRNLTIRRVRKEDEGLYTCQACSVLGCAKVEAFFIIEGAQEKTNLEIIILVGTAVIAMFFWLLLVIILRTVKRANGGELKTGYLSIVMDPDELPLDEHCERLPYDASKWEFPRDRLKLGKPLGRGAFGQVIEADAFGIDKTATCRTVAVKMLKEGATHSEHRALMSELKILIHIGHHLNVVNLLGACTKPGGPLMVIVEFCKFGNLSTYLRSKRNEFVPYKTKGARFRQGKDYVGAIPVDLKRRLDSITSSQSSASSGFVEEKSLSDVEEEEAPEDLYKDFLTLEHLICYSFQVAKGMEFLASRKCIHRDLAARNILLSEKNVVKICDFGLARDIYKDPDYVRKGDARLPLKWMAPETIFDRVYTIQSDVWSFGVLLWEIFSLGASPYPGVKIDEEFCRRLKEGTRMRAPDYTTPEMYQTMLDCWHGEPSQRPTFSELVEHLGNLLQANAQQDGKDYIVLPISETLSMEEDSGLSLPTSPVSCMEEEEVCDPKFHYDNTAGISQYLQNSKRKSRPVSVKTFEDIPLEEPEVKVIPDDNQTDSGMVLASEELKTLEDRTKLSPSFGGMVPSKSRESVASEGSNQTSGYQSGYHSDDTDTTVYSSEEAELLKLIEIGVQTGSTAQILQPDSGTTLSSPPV
Epidermal growth factor receptor, sequence (P00533 whole entry): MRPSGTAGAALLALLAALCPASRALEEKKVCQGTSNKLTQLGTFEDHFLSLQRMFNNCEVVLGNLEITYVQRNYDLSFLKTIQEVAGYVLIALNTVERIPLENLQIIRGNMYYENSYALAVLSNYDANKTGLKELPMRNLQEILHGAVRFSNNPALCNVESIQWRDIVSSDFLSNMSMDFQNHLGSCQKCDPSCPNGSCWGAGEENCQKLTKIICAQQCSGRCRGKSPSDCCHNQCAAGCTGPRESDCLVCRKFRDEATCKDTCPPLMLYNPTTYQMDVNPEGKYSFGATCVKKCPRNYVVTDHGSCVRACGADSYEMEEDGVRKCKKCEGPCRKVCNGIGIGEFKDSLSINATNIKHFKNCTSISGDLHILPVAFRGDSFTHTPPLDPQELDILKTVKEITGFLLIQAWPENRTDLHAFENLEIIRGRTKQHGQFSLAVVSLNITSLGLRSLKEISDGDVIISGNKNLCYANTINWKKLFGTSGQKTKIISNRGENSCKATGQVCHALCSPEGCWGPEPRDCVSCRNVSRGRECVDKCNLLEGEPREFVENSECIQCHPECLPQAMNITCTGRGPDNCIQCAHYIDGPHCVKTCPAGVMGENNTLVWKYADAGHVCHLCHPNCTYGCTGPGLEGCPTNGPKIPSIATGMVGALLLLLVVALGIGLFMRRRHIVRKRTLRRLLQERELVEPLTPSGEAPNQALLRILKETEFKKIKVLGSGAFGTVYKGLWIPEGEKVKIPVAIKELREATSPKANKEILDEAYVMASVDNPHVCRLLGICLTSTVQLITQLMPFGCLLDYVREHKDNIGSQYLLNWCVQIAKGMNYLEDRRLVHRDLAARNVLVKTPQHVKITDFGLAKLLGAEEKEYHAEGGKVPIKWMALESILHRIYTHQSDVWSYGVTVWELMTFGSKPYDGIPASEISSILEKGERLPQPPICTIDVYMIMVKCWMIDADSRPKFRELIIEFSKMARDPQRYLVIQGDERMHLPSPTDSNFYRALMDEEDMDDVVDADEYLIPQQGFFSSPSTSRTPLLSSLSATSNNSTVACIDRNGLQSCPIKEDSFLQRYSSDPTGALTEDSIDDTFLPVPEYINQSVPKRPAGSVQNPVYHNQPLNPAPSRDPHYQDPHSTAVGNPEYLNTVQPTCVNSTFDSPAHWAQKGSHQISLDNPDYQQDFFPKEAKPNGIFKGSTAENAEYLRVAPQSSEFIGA

CC(=O)Nc1cc(-c2ccc(-c3cc(NC(=O)c4ccnc(N5CCCC5)c4)ccc3C)cc2)[nH]n1
Ki [1]: 14 nM

Cc1ccc(C(=O)Nc2cccc(N3CCOCC3)c2)cc1-c1ccc2c(C3CCNCC3)noc2c1
IC50 [2]: > 33000 nM
IC50 [3]: > 25000 nM
IC50 [4]: > 20000 nM
IC50 [5]: > 20000 nM
IC50 [6]: > 20000 nM
IC50 [7]: > 16000 nM
IC50 [8]: 40 nM

Cc1ccc(NC(=O)c2ccnc(N3CCCC3)c2)cc1-c1ccc2c(C3CCNCC3)noc2c1
IC50 [2]: > 33000 nM
IC50 [3]: > 25000 nM
IC50 [4]: > 20000 nM
IC50 [5]: > 20000 nM
IC50 [6]: 7000 nM
IC50 (Blood): 5000 nM
Ki [1]: 0.8 nM
IC50 [9]: 6000 nM
IC50 (PBMC): 60 nM
IC50 [7]: > 16000 nM
IC50 [8]: 30 nM

Cc1nnc(-c2ccc(-c3cc(NC(=O)c4ccnc(N5CCCC5)c4)ccc3C)c(C)c2)o1
IC50 [2]: > 33000 nM
IC50 [3]: > 25000 nM
IC50 [4]: > 20000 nM
IC50 [5]: > 20000 nM
IC50 [6]: > 20000 nM
IC50 (Blood): 700 nM
Ki [1]: 1.7 nM
IC50 [9]: 10000 nM
IC50 (PBMC): 100 nM
IC50 [7]: > 16000 nM
IC50 [8]: 200 nM

Cc1ccc(C(=O)Nc2cccc(N3CCOCC3)c2)cc1-c1ccc2onc(C)c2c1
Ki [1]: 380 nM

Cc1ccc(NC(=O)c2ccnc(N3CCCC3)c2)cc1-c1ccc2[nH]c(=O)ccc2c1
Ki [1]: 49 nM

Cc1ccc(C(=O)Nc2cccc(N3CCOCC3)c2)cc1-c1ccc2[nH]ncc2c1
Ki [1]: 110 nM

Cc1ccc(NC(=O)c2ccc(CN3CCN(C)CC3)cc2)cc1-c1ccc(-c2csc(N)n2)cc1
IC50 [2]: > 33000 nM
IC50 [3]: > 25000 nM
IC50 [4]: > 20000 nM
IC50 [5]: > 20000 nM
IC50 [6]: 90 nM
IC50 [10]: > 25000 nM
Ki [1]: > 850 nM
IC50 [11]: > 25000 nM
IC50 [9]: 2000 nM
IC50 [7]: > 16000 nM

Cc1nc(-c2ccc(-c3cc(C(=O)NC4CC4)ccc3C)cc2)no1
Ki [1]: 98 nM

Cc1ccc(C(=O)Nc2cccc(N3CCOCC3)c2)cc1-c1ccc2nc(N)[nH]c(=O)c2c1
Ki [1]: 4.7 nM

Cc1ccc(C(=O)NC2CC2)cc1-c1ccc2nc(N)[nH]c(=O)c2c1
Ki [1]: 49 nM

Cc1nc(-c2ccc(-c3cc(C(=O)Nc4cccc(N5CCOCC5)c4)ccc3C)cc2)no1
Ki [1]: 17 nM

Cc1ccc(C(=O)NC2CC2)cc1-c1ccc2cccnc2c1
Ki [1]: 490 nM

Cc1ccc(NC(=O)c2ccc(CN3CCN(C)CC3)cc2)cc1-c1ccc2cccnc2c1
Ki [1]: > 2500 nM

Cc1ccc(C(=O)NC2CC2)cc1-c1ccc2c(=O)cc(-c3cccs3)oc2c1
Ki [1]: 6.7 nM

Cc1ccc(C(=O)Nc2cccc(N3CCOCC3)c2)cc1-c1ccc2[nH]c(=O)ccc2c1
Ki [1]: 290 nM

Cc1nc(-c2ccc(-c3cc(NC(=O)c4ccc(CN5CCN(C)CC5)cc4)ccc3C)cc2)no1
Ki [1]: > 850 nM

CCCCn1c(=O)[nH]c2cc(-c3cc(NC(=O)c4ccnc(N5CCCC5)c4)ccc3C)ccc2c1=O
Ki [1]: 11 nM

Cc1nnc(-c2ccc(-c3cc(NC(=O)c4ccc(CN5CCN(C)CC5)cc4)ccc3C)c(C)c2)o1
IC50 [2]: > 33000 nM
IC50 [3]: > 25000 nM
IC50 [4]: > 20000 nM
IC50 [5]: > 20000 nM
IC50 [6]: 100 nM
IC50 [10]: > 25000 nM
Ki [1]: 1400 nM
IC50 [11]: > 25000 nM
IC50 [9]: 3000 nM
IC50 [7]: > 16000 nM

Cc1ccc(NC(=O)c2ccnc(N3CCCC3)c2)cc1-c1ccc2c(N)noc2c1
Ki [1]: 12 nM

Cc1ccc(NC(=O)c2ccc(CN3CCN(C)CC3)cc2)cc1-c1ccc2c(N)noc2c1
IC50 [2]: > 33000 nM
IC50 [3]: > 25000 nM
IC50 [4]: > 20000 nM
IC50 [5]: > 20000 nM
IC50 [6]: 90 nM
IC50 [10]: > 25000 nM
Ki [1]: > 850 nM
IC50 [11]: > 25000 nM
IC50 [9]: 1000 nM
IC50 [7]: > 16000 nM

Cc1ccc(C(=O)Nc2cccc(N3CCOCC3)c2)cc1-c1ccc2ccncc2c1
Ki [1]: 4.5 nM

Cc1ccc(C(=O)NC2CC2)cc1-c1ccc2c(C3CCNCC3)noc2c1
IC50 [2]: > 33000 nM
IC50 [3]: > 25000 nM
IC50 [4]: > 20000 nM
IC50 [5]: > 20000 nM
IC50 [6]: > 20000 nM
IC50 [10]: > 25000 nM
IC50 (Blood): 3000 nM
Ki [1]: 4 nM
IC50 [11]: > 25000 nM
IC50 (PBMC): 200 nM
IC50 [8]: > 50000 nM

CCCCn1c(=O)[nH]c2cc(-c3cc(C(=O)NC4CC4)ccc3C)ccc2c1=O
Ki [1]: 18 nM
